Where a SMILES comes first, the peptide text is derived from it. The star is where a group is joined. Biotin = O=C1N[C@H]2[C@H](CS[C@H]2CCCCC(=O)*)N1
What was measured:
AR LBD [1] = biological target: T1, AR LBD (Pan troglodytes, UniProt O97775); test: FRET-based assay of interaction between synthetic peptide and purified AR LBD; format: binding, chimp (100% identity to the human form in protein sequence); conditions: in vitro; excitation 320 nm, emission 625 and 665 nm; streptavidin-cryptate / streptavidin-XL665; unpublished data
T1 construct: chimp AR LBD (residues 663–919—human numbering); GST (N, cleaved yes); made in house; host or cells: E. coli BL21 (DE3) STAR
T1 sequence (O97775 655-911 limits assumed): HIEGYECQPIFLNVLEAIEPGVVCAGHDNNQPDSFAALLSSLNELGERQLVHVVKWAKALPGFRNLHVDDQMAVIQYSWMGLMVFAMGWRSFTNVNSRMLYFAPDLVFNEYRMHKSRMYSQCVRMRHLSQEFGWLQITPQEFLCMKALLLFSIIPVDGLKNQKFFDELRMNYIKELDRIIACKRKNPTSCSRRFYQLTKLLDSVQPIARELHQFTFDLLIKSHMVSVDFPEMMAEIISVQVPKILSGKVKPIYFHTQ
Procedure: Synthetic peptides corresponding to the deduced amino acid sequences from receptor-specific phage were tested for their ability to interact with purified AR LBD using a FRET–based assay format. […] Flourophor conjugates were prepared by incubating either biotinylated peptides with streptavidin-cryptate (Cis Bio International, Bagnols Sur Ceze Cedex, France), or biotinylated AR LBD with streptavidin-XL665 (Cis Bio). Interaction between peptide and AR LBD was monitored by the ratio of energy transfer by excitation at 320 nm and emission at 625 nm and 665 nm.

AR LBD [2] = biological target: T1, AR LBD; test: Surface plasmon resonance (Biacore 2000), peptide binding to AR LBD; format: chimp (100% identity to the human form in protein sequence); conditions: for ka1 × 10^-4: association rate, biotinylated peptide immobilised (approx. 250 RU), AR LBD 10, 5, 1 μM and 300 nM, SMRT2 signal subtracted, values are ka1 multiplied by 10^-4; for ka1 × 10^-4 / kd1 × 10^2: step 1 of two-state conformational change model; for ka1 × 10^-4 / Kd2 / kd1 × 10^2 / ka2 × 10^3 / kd2 × 10^3: HBS-P pH 7.4; for Kd2: dissociation constant of step 2, calculated from rate constants, two-state conformational change model; for kd1 × 10^2: dissociation rate, values are kd1 multiplied by 10^2; for ka2 × 10^3: forward rate, values are ka2 multiplied by 10^3; for ka2 × 10^3 / kd2 × 10^3: step 2 of two-state conformational change model; for kd2 × 10^3: reverse rate, values are kd2 multiplied by 10^3
Procedure: (§1) Expression and purification of the AR LBD for crystallization were performed essentially as described ([Matias et al. 2000]). […] Induction was carried out with 30 μM IPTG at 17 °C for 16–18 h. E. coli cells were lysed in buffer (10 mM Tris, [pH 8.0], 150 mM NaCl, 10% glycerol, 1 mM TCEP, 0.2 mM PMSF) supplemented with 0.5 μg/ml lysozyme, 5 U/ml benzonase, 0.5% CHAPS, and 10 μM DHT. All buffers for further purification steps contained 1 μM DHT. Soluble cell lysate was adsorbed to Glutathione Sepharose 4 Fast Flow resin (Amersham Biosciences), washed with buffer containing 0.1% n-octyl β-glucoside, and eluted with 15 mM glutathione. After cleavage of the GST moiety with thrombin, final purification of the AR LBD was carried out using a HiTrap SP cation exchange column (Amersham Biosciences). Eluted AR LBD was dialyzed overnight at 4 °C against buffer containing 50 mM HEPES (pH 7.2), 10% glycerol, 0.2 mM TCEP, 20 μM DHT, 150 mM Li2SO4, and 0.1% n-octyl β-glucoside, then concentrated to greater than 4 mg/ml for crystallization.
Affinities of peptides to the AR LBD were determined with a Biacore (Piscataway, New Jersey, United States) 2000 instrument. A peptide derived from silencing mediator for RXR and TR 2 (SMRT2) served as a negative control. 1 mM peptide stock solutions in DMSO were diluted into HBS-P buffer (10 mM HEPES [pH 7.4], 150 mM NaCl, 0.005% Surfactant P20) to generate 10 μM working solutions. HBS-P buffer was flowed through the cells to achieve a stable baseline prior to immobilization of the biotinylated peptides. To achieve the binding of approximately 250 RU of peptides to individual cells, working solutions of peptides were diluted to 100 nM in HBS-P buffer. Unbound streptavidin sites were blocked by injection of a 1 mM biotin solution at a rate of 10 μl/min.
Purified AR LBD was diluted into HBS-P buffer to a concentration of 10 μM and injected into all four Flowcells using the Kinject protocol at a flow rate of 10 μl/min (contact time 360 s, dissociation time 360 s). Following the dissociation phase, the surface of the chip was regenerated to remove residual AR LBD by QuickInject of buffer containing 10 mM HEPES and 50% ethylene glycol (pH 11). Following the establishment of a stable baseline, the same procedure was repeated using a series of AR LBD dilutions (5 μM, 1 μM, and 300 nM) in an iterative manner. Analysis of the data was performed using BIAevaluation 3.0 software (Biacore). The SMRT2 signals were subtracted as background from the three remaining peptide signals. Data were best fit using the two-state conformational change model ([Warnmark et al. 2001], [2002]).

AR LBD [3] = biological target: T1, AR LBD; test: X-ray crystal structures of AR LBD-peptide complexes, buried surface area; format: chimp (100% identity to the human form in protein sequence); conditions: calculated with CNS from crystal structure; for Buried surface area, +1: +1 residue; for Buried surface area, +1 / Buried surface area, +4 / Buried surface area, +5: side chain atoms only; for Buried surface area, +4: +4 residue; for Buried surface area, +5: +5 residue; for Buried surface area, Total: AR LBD-peptide complex, DHT-bound
Procedure: as §1
Purified, concentrated AR LBD was combined with 3x to 6x molar excess of peptide and incubated 1 h at room temperature before crystallization trials. Complexes were crystallized using the hanging drop vapor diffusion method. Protein–peptide solution was combined in a 1:1 ratio with a well solution consisting of 0.6–0.8 M sodium citrate and 100 mM Tris or HEPES buffer (pH 7–8). Crystals typically appeared after 1–2 d, with maximal size attained within 2 wk. For data collection, crystals were swiped into a cryo-protectant solution consisting of well solution plus 10% glycerol before flash freezing in liquid nitrogen. The addition of ethylene glycol to a well concentration of 10%–20% was later found to both improve crystal quality and enable the freezing of crystals directly out of the drop.
Datasets were collected at 100K at the Advanced Light Source (Lawrence Berkeley Laboratory, Berkeley, California, United States), beamline 8.3.1, with either a ADSC Quantum 315 or Quantum 210 CCD detector. Data were processed using Denzo and Scalepack ([Otwinowski and Minor 1997]). Molecular replacement searches were performed with rotation and translation functions from CNS ([Brunger et al. 1998]). Initial searches for AR–FxxLF were performed using the structure of AR–R1881 (PDB: 1E3G) with R1881 omitted from the search model. Subsequent searches for all other complexes were performed using the refined LBD structure from the AR–FxxLF complex. To minimize the possibility of model bias, FxxLF peptide and DHT were omitted from all molecular replacement searches. Protein models were built by iterative rounds of simulated annealing, conjugate gradient minimization, and individual B-factor refinement in CNS followed by manual rebuilding in Quanta 2000 (Accelrys, San Diego, California, United States) using σA-weighted 2F o − F c, F o − F c, and simulated annealing composite omit maps. Superposition of structures was performed with LSQMAN ([Kleywegt 1996]). Buried surface area calculations were performed with CNS. All figures were generated with PyMOL ([DeLano 2002]). Coordinates and structure factors for all complexes have been deposited in the Protein Data Bank.

CC(C)C[C@H](NC(=O)CNC(=O)[C@H](CCCNC(=N)N)NC(=O)[C@H](CO)NC(=O)[C@@H](N)CO)C(=O)N[C@@H](CC(C)C)C(=O)N[C@@H](Cc1c[nH]c2ccccc12)C(=O)N[C@@H](CC(=O)O)C(=O)N[C@@H](CC(C)C)C(=O)N[C@@H](CC(C)C)C(=O)N[C@H](C(=O)N[C@@H](CCCCN)C(=O)N[C@@H](CC(=O)O)C(=O)N[C@@H](CO)C(=O)N[C@@H](CCCNC(=N)N)C(=O)N[C@@H](CO)C(=O)NCC(=O)N[C@@H](CO)C(=O)NCC(=O)N[C@@H](CCCCNC(=O)CCCC[C@@H]1SC[C@@H]2NC(=O)N[C@@H]21)C(=O)O)[C@@H](C)O [LxxLL] (H-SSRGLLWDLLTKDSRSGSGK(Biotin)-OH; N-terminus and C-terminus assumed)
binding to AR in FRET-based screens (AR LBD [1]): demonstrated to bind AR in FRET-based screens in vitro | affinity for AR (AR LBD [2]): moderate affinity | fold weaker affinity than FxxLF (AR LBD [2]; Kd ratio relative to FxxLF): less than 2 -fold | ka1 × 10^-4 (AR LBD [2]): 6.2±4.3 M^-2s^-1 | affinity relative to tightest binding p160-derived LxxLL motif, NR box 3 of TIF2 (AR LBD [2]; compared with earlier value for TIF2 NR box 3 (He and Wilson 2003)): more than three times stronger | Kd2 (AR LBD [2]): 1.6±0.2 | kd1 × 10^2 (AR LBD [2]): 7.0±0.17 M^-1s^-1 | ka2 × 10^3 (AR LBD [2]): 3.2±0.4 M^--1s^-1 | kd2 × 10^3 (AR LBD [2]): 5.0±0.04 M^-1s^-1 | Buried surface area, +1 (AR LBD [3]): 271 Å^2 | Buried surface area, +4 (AR LBD [3]): 193 Å^2 | Buried surface area, +5 (AR LBD [3]): 241 Å^2 | Buried surface area, Total (AR LBD [3]): 984 Å^2

CC(C)C[C@H](NC(=O)[C@H](C)NC(=O)[C@H](C)NC(=O)[C@H](Cc1ccccc1)NC(=O)[C@H](CCCCN)NC(=O)[C@H](CO)NC(=O)[C@@H](N)CO)C(=O)N[C@@H](Cc1c[nH]c2ccccc12)C(=O)N[C@@H](CC(=O)O)C(=O)N1CCC[C@H]1C(=O)N1CCC[C@H]1C(=O)N[C@@H](CCCCN)C(=O)N[C@@H](CC(C)C)C(=O)N[C@@H](CO)C(=O)N[C@@H](CCCNC(=N)N)C(=O)N[C@@H](CO)C(=O)NCC(=O)N[C@@H](CO)C(=O)NCC(=O)N[C@@H](CCCCNC(=O)CCCC[C@@H]1SC[C@@H]2NC(=O)N[C@@H]21)C(=O)O [FxxLW] (H-SSKFAALWDPPKLSRSGSGK(Biotin)-OH; N-terminus and C-terminus assumed)
ka1 × 10^-4 (AR LBD [2]): 5.9±1.5 M^-2s^-1 | affinity relative to FxxLF (AR LBD [2]; comparison with FxxLF): slightly better than FxxLF | Kd2 (AR LBD [2]): 1.6±0.2 | kd1 × 10^2 (AR LBD [2]): 3.4±0.04 M^-1s^-1 | ka2 × 10^3 (AR LBD [2]): 3.6±0.3 M^--1s^-1 | kd2 × 10^3 (AR LBD [2]): 5.6±0.05 M^-1s^-1 | Buried surface area, +1 (AR LBD [3]): 315 Å^2 | Buried surface area, +4 (AR LBD [3]): 187 Å^2 | Buried surface area, +5 (AR LBD [3]): 313 Å^2 | Buried surface area, Total (AR LBD [3]): 937 Å^2

CC(C)C[C@H](NC(=O)[C@H](CO)NC(=O)[C@H](CCC(=O)O)NC(=O)[C@H](Cc1ccccc1)NC(=O)[C@H](CCCNC(=N)N)NC(=O)[C@H](CO)NC(=O)[C@@H](N)CO)C(=O)N[C@@H](Cc1ccccc1)C(=O)N[C@@H](C)C(=O)NCC(=O)N[C@@H](CCC(=O)O)C(=O)N[C@@H](CCCCN)C(=O)N[C@@H](CCC(=O)O)C(=O)N[C@@H](CO)C(=O)N[C@@H](CCCNC(=N)N)C(=O)N[C@@H](CO)C(=O)NCC(=O)N[C@@H](CO)C(=O)NCC(=O)N[C@@H](CCCCNC(=O)CCCC[C@@H]1SC[C@@H]2NC(=O)N[C@@H]21)C(=O)O [FxxLF] (H-SSRFESLFAGEKESRSGSGK(Biotin)-OH; N-terminus and C-terminus assumed)
ka1 × 10^-4 (AR LBD [2]): 5.2±1.0 M^-2s^-1 | Kd2 (AR LBD [2]): 2.6±1.0 | kd1 × 10^2 (AR LBD [2]): 2.3±0.03 M^-1s^-1 | ka2 × 10^3 (AR LBD [2]): 1.3±0.5 M^--1s^-1 | kd2 × 10^3 (AR LBD [2]): 3.5±0.06 M^-1s^-1 | Buried surface area, +1 (AR LBD [3]): 305 Å^2 | Buried surface area, +4 (AR LBD [3]): 189 Å^2 | Buried surface area, +5 (AR LBD [3]): 276 Å^2 | Buried surface area, Total (AR LBD [3]): 1012 Å^2
